Assays:
Format in all cases: in vivo
[1] = tested on: Housefly [Musca domestica]; assay: Housefly contact mortality in dishes (HF), 48 hours; conditions: μg of test compound per 25 female flies
In short: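 Residual contact test: acetone dilution, 0.01% peanut oil spreader, solvent evaporated; 25 ♀ flies (1-2 d old) per cage; sugar-water plug; 48 h mortality read. LC50 in μg/25 female flies, from dose-mortality curves; top dose 100 μg/25 flies.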

[2] = tested on: Black Bean Aphid [Aphis fabae (Scop.)]; assay: Black bean aphid spray test on nasturtium (BBA), 48 hours; conditions: percent of test compound in sprayed solution
In short: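 LC50, given as percent test compound in the sprayed liquid, was calculated from dosage-mortality curves using concentrations from 0.05% downward. Sprays in 50:50 acetone-water went to runoff on ~5 cm nasturtiums carrying 25-50 aphids of mixed ages, one day after infestation. Deaths were counted 48 h later under greenhouse conditions.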

[3] = tested on: Tobacco Budworm [Heliothis virescens (Fabricius)] eggs; assay: Tobacco budworm eggs (TBW-E); conditions: percent in solution; 2-day old eggs
In short: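 Paper towel patches bearing 2-day old eggs were dipped in acetone solutions of compound, then set in petri dishes over larval rearing medium at 78° F. Mortality was scored once all control eggs had hatched and larvae were feeding. LC50, from dosage-mortality curves, is given as percent compound in solution.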

[4] = tested on: Cabbage Looper [Trichoplusia ni (Hubner)]; assay: Cabbage looper leaf dip (CL), 3-5 days; conditions: percent in solution, second-instar larvae
In short: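 Compounds in 50-50 acetone-water were applied by dipping squash cotyledons (about 1×1.5 in) for 2-3 s; dried leaves went into petri dishes on moist filter paper with 5 second-instar larvae under high humidity. Mortality was scored after 3-5 days; LC50 from dosage-mortality curves, as percent compound in solution.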

[5] = tested on: Maize weevil [Sitophilus zeamais (Motschulsky)]; assay: Maize weevil on dipped corn seeds (MW), 48 hours; conditions: percent in solution, adult weevils
In short: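 LC50, given as percent of compound in dipping solution, comes from dosage-mortality curves over concentrations descending from 0.01%. Four corn seeds soaked 2-3 s in 50:50 acetone:water solution were dried and held with 10 adult weevils, about 25° C, mortality read after 48 h.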

[6] = tested on: two-spotted mite [Tetranychus urticae (Koch)]; assay: Two-spotted mite activity; conditions: initial testing level 0.05% in solution
Procedure: The compounds in Tables 1 and 2 were also tested for activity against the two-spotted mite [Tetranychus urticae (Koch)] and Western spotted cucumber beetle larvae [Diabrotica undecimpunctata undecimpunctata (Mannerheim)]. Initial testing levels were 0.05% (in solution) against the mite, and 25 ppm (in soil) against the beetle.

[7] = tested on: Tobacco Budworm [Heliothis virescens (Fabricius)] larvae; assay: Tobacco budworm larvae, contact (TBW-C), 5 days; conditions: percent in solution, second-instar larvae
In short: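 Cotton cotyledons dipped 2–3 s in compound in 50-50 acetone-water, dried, then infested with 5 second-instar larvae and held 5 days at high humidity. Mortality scored; LC50 from dosage-mortality curves, expressed as percent compound in solution, concentrations from 0.1% downward.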

[8] = tested on: Beet Armyworm (Spodoptera exigua); assay: Beet armyworm leaf dip (BAW), 5 days; conditions: percent in solution; second-instar larvae; five days
In short: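 Sugar beet leaves dipped 2–3 s in compound diluted in 50:50 acetone-water, dried, then infested with five second-instar larvae in humid petri dishes. Mortality scored at 5 days; concentrations from 0.1% downward. LC50 from dosage-mortality curves, expressed as percent compound in solution.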

[9] = tested on: Aster Leafhopper [Macrosteles fascifrens (Stal)]; assay: Aster leafhopper on dipped oat seedlings (LH), 48 hours; conditions: percent in solution, adults/nymphs
In short: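 Three ~10 cm oat seedlings per cup were dipped 2-3 seconds in 50-50 acetone-water compound solutions, dried, and caged with ten adult/nymph leafhoppers. Mortality was counted after 48 hours at concentrations from 0.05% downward. LC50, as percent compound in solution, came from dosage-mortality curves.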

[10] = tested on: Rice water weevil [Lissorhoptrus oryzophilus (Kuschel)]; assay: Rice water weevil topical (RWW), 48 hours; conditions: μg of test compound per weevil, female adults
In short: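 Female adult weevils (ten per dose) received 1 µl acetone droplets on the ventral abdomen and were held at about 25 °C with wet cotton and rice foliage. Mortality read at 48 h; LC50 from dose-mortality curves, given as µg compound per weevil, top dose 2.5 µg per weevil.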

| Compound | LC50 HF [1] | LC50 BBA [2] | LC50 TBW E (eggs) [3] | LC50 CL [4] | LC50 MW [5] | activity in tests against twospotted mite [6] | LC50 TBW C (contact) [7] | LC50 BAW [8] | LC50 LH [9] | LC50 RWW [10] |
| --- | --- | --- | --- | --- | --- | --- | --- | --- | --- | --- |
| CC(C)C(=Nc1ccc(OC(F)(F)C(F)Cl)cc1)OCc1cccc(Oc2ccccc2)c1 (stereo not drawn) [Compound 418] | > 100 µg | > 0.05% | > 0.1% | > 0.1% | > 0.01% | demonstrated activity | – | – | – | – |
| CC(C)C(=Nc1ccc(OC(F)(F)C(F)Cl)cc1)OCc1ccc(F)c(Oc2ccccc2)c1 (stereo not drawn) [Compound 419] | > 100 µg | > 0.05% | > 0.1% | > 0.1% | > 0.01% | demonstrated activity | – | – | – | – |
| CC(C)C(=Nc1ccc(F)c(Cl)c1)OCc1cccc(Oc2ccccc2)c1 [Compound 81, N-(3-Chloro-4-fluorophenyl)-O-(3-phenoxybenzyl)isobutyrylimidate] | 4 µg | 0.001% | 0.007% | 0.0006% | 0.005% | – | 0.0009% | 0.003% | 0.0003% | > 0.5 µg |
| CC(C)C(=Nc1ccc(F)c(Cl)c1)OCc1ccc(F)c(Oc2ccc(Cl)cc2)c1 [Compound 267] | 8.4 µg | 0.0003% | 0.015% | 0.00008% | 0.0027% | – | 0.0003% | 0.0012% | 0.002% | 0.11 µg |
